One may read the IC50 as the midpoint of a concentration-inhibition curve.

Structures are written as SMILES.

The test system of one test is Aβ1-42 production. Nature of the test: Cellular assay for inhibition of Aβ1-42 production (H4 APP751 SWE clone 8.20). Type of test: cell-based. To be noted: 19 h, H4 APP751 SWE clone 8.20 cells, 19 h incubation; class symbols; read-out: Activity Rating (Aβ42 cellular IC50). Summed up: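 Secreted peptide was quantified with a two-antibody homogeneous format combining Wallac-labelled 565, which recognises the Aβ42 end, and APC-labelled 26D6 at 0.8 and 75 ng/well respectively. Antibodies were diluted in 40 mM Tris-HCl, pH 7.4, 0.2% BSA and left overnight at 4 °C after a 19 h compound incubation.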
For `CNc1nc(Nc2ccc(-n3cnc(C)n3)c(OC)c2)nc2c1CCC2c1ccc(F)cc1F` (centres unmarked) [Example 193, 7-(2,4-difluorophenyl)-N2-(3-methoxy-4-(3-methyl-1H-1,2,4-triazol-1-yl)phenyl)-N4-methyl-6,7-dihydro-5H-cyclopenta[d]pyrimidine-2,4-diamine], the half-inhibitory concentration (IC50) lay in the range of 10 to 100 nM.
For the molecule `COc1cc(Nc2nc3c(c(N4CC[C@H](F)C4)n2)COC3c2ccc(F)cc2)ccc1-n1cnc(Cl)c1` (single isomer, unassigned) [Example 76], the half-maximal inhibitory concentration (IC50) fell in the range of 10 to 100 nM.
Same read-out and setting: the figure for `CCNc1nc(Nc2ccc(-n3cnc(Cl)c3)c(OC)c2)nc2c1CN(S(C)(=O)=O)CC2c1ccccc1` (centres unmarked) [Example 134, N2-(4-(4-chloro-1H-imidazol-1-yl)-3-methoxyphenyl)-N4-ethyl-6-(methylsulfonyl)-8-phenyl-5,6,7,8-tetrahydropyrido[4,3-d]pyrimidine-2,4-diamine] is 1.5 to 9.9 nM; for `Cc1ncnn1-c1ccc(Nc2nc3c(c(N4CC(F)(F)C4)n2)COCC3c2ccc(Cl)cc2)cc1F` (centres unmarked) [Example 68, 8-(4-chlorophenyl)-4-(3,3-difluoroazetidin-1-yl)-N-(3-fluoro-4-(5-methyl-1H-1,2,4-triazol-1-yl)phenyl)-7,8-dihydro-5H-pyrano[4,3-d]pyrimidin-2-amine] it is 10 to 100 nM.
Regarding `[2H]C([2H])([2H])Nc1nc(Nc2ccc(-n3cnc(Cl)c3)c(OC)c2)nc2c1CCC2c1ccc(F)cc1` (centres unmarked) [Example 47, N^2-(4-(4-Chloro-1H-imidazol-1-yl)-3-methoxyphenyl)-7-(4-fluorophenyl)-N^4-trideuteromethyl-6,7-dihydro-5H-cyclopenta[d]pyrimidine-2,4-diamine], the IC50 is 1.5 to 9.9 nM.
In the case of `CNc1nc(Nc2ccc(-n3cnc(Cl)c3)c(OC)c2)nc2c1CN(C)CC2c1ccccc1` (centres unmarked) [Example 148A, N2-(4-(4-chloro-1H-imidazol-1-yl)-3-methoxyphenyl)-N4,6-dimethyl-8-phenyl-5,6,7,8-tetrahydropyrido[4,3-d]pyrimidine-2,4-diamine], the IC50 lay within 1.5 to 9.9 nM.
Turning to `CNc1nc(Nc2ccc(-n3cnc(Cl)c3)c(OC)c2)nc2c1CCC2c1ccc(F)cc1` (centres unmarked) [Example 11, N^2-(4-(4-Chloro-1H-imidazol-1-yl)-3-methoxyphenyl)-7-(4-fluorophenyl)-N^4-methyl-6,7-dihydro-5H-cyclopenta[d]pyrimidine-2,4-diamine], the IC50 lay within 1.5 to 9.9 nM.
Still for that read-out and setting: the figure for `COc1cc(Nc2ncc3c(n2)C(c2ccc(F)cc2)CCC3)ccc1-n1cnc(Cl)c1` (centres unmarked) [Example 128, N-(4-(4-Chloro-1H-imidazol-1-yl)-3-methoxyphenyl)-8-(4-fluorophenyl)-5,6,7,8-tetrahydroquinazolin-2-amine] is 100 to 1000 nM.

Staying with this test, now noted: 19 h, H4 APP751 SWE clone 8.20 cells, 19 h incubation; read-out: Activity Rating (Aβ42 cellular IC50), numeric value.
Regarding `CCNc1nc(Nc2ccc(-n3cnc(Cl)c3)c(OC)c2)nc2c1CN(C(C)=O)CC2c1ccccc1` (centres unmarked) [Example 137, 1-(2-(4-(4-chloro-1H-imidazol-1-yl)-3-methoxyphenylamino)-4-(ethylamino)-8-phenyl-7,8-dihydropyrido[4,3-d]pyrimidin-6(5H)-yl)ethanone], the IC50 amounted to 11 nM.
Same read-out and setting: the result for `COc1cc(Nc2nc3c(c(N4C[C@@H](C)O[C@@H](C)C4)n2)COC3c2ccc(F)cc2)ccc1-n1cnc(Cl)c1` (stereo partly drawn) [Example 84B, N-(4-(4-chloro-1H-imidazol-1-yl)-3-methoxyphenyl)-4-((2S,6R)-2,6-dimethylmorpholino)-7-(4-fluorophenyl)-5,7-dihydrofuro[3,4-d]pyrimidin-2-amine] reads 290 nM; that for `COc1cc(Nc2nc3c(c(N(C)C)n2)CCC3c2ccc(OC(F)(F)F)cc2)ccc1-n1cnc(Cl)c1` (single isomer, unassigned) [Example 100A, N^2-(4-(4-chloro-1H-imidazol-1-yl)-3-methoxyphenyl)-N^4,N^4-dimethyl-7-(4-(trifluoromethoxy)phenyl)-6,7-dihydro-5H-cyclopenta[d]pyrimidine-2,4-diamine], 4.7 nM; that for `COc1cc(Nc2nc(Nc3cc(C(C)C)ccc3C)c3c(n2)C(c2ccccc2)CC3)ccc1-n1cnc(Cl)c1` (centres unmarked) [Example 214, N2-(4-(4-chloro-1H-imidazol-1-yl)-3-methoxyphenyl)-N4-(5-isopropyl-2-methylphenyl)-7-phenyl-6,7-dihydro-5H-cyclopenta[d]pyrimidine-2,4-diamine], 77 nM.

Staying with this test, now noted: H4 APP751 SWE clone 8.20 cells, 19 h incubation; class symbols; read-out: Activity Rating (Aβ42 cellular IC50).
Regarding `CNc1nc(Nc2ccc(-n3cnc(C)n3)c(OC)c2)nc2c1COCC2c1ccc(Cl)cc1` (single isomer, unassigned) [Example 71B, 8-(4-chlorophenyl)-N^2-(3-methoxy-4-(3-methyl-1H-1,2,4-triazol-1-yl)phenyl)-N^4-methyl-7,8-dihydro-5H-pyrano[4,3-d]pyrimidine-2,4-diamine], the 50% inhibitory concentration (IC50) lay in the range of 10 to 100 nM.
On the same count and under the same terms, the result for `COc1cc(Nc2nc3c(c(N4CCC4)n2)CCC3c2ccc(OC(F)(F)F)cc2)ccc1-n1cnc(Cl)c1` (single isomer, unassigned) [Example 101B, 4-(azetidin-1-yl)-N-(4-(4-chloro-1H-imidazol-1-yl)-3-methoxyphenyl)-7-(4-(trifluoromethoxy)phenyl)-6,7-dihydro-5H-cyclopenta[d]pyrimidin-2-amine] reads 10 to 100 nM.
Same read-out and setting: the result for `COc1cc(Nc2nc3c(c(N4CC(F)(F)C4)n2)COCC3c2ccc(F)c(F)c2)ccc1-n1cnc(Cl)c1` (centres unmarked) [Example 114B, N-(4-(4-chloro-1H-imidazol-1-yl)-3-methoxyphenyl)-4-(3,3-difluoroazetidin-1-yl)-8-(3,4-difluorophenyl)-7,8-dihydro-5H-pyrano[4,3-d]pyrimidin-2-amine] reads 100 to 1000 nM; that for `CCN(C)c1nc(Nc2ccc(-n3cnc(Cl)c3)c(OC)c2)nc2c1CCCC2c1ccccc1` (single isomer, unassigned) [Example 124B, N^2-(4-(4-Chloro-1H-imidazol-1-yl)-3-methoxyphenyl)-N^4-ethyl-N^4-methyl-8-phenyl-5,6,7,8-tetrahydroquinazoline-2,4-diamine], 10 to 100 nM.
Take `COc1cc(Nc2nc3c(c(N(C)C)n2)COCC3c2ccccc2)ccc1-n1cnc(Cl)c1` (single isomer, unassigned) [Example 53B, N^2-(4-(4-Chloro-1H-imidazol-1-yl)-3-methoxyphenyl)-N^4,N^4-dimethyl-8-phenyl-7,8-dihydro-5H-pyrano[4,3-d]pyrimidine-2,4-diamine]: the 50% inhibitory concentration (IC50) was in the range of 10 to 100 nM.
Same read-out and setting: the figure for `CCNc1nc(Nc2ccc(-n3cnc(Cl)c3)c(OC)c2)nc2c1CN(C(=O)OC)CC2c1ccccc1` (centres unmarked) [Example 131A, Methyl 2-(4-(4-chloro-1H-imidazol-1-yl)-3-methoxyphenylamino)-4-(ethylamino)-8-phenyl-7,8-dihydropyrido[4,3-d]pyrimidine-6(5H)-carboxylate] is 1.5 to 9.9 nM; for `COc1cc(Nc2nc3c(c(N(C)C)n2)COCC3c2ccc(F)cc2)ccc1-n1cnc(Cl)c1` (centres unmarked) [Example 61B, N2-(4-(4-chloro-1H-imidazol-1-yl)-3-methoxyphenyl)-8-(4-fluorophenyl)-N4,N4-dimethyl-7,8-dihydro-5H-pyrano[4,3-d]pyrimidine-2,4-diamine] it is 10 to 100 nM; for `CCN(C)c1nc(Nc2ccc(-n3cnc(Cl)c3)c(OC)c2)nc2c1COCC2c1ccccc1` (single isomer, unassigned) [Example 52B, N^2-(4-(4-Chloro-1H-imidazol-1-yl)-3-methoxyphenyl)-N^4-ethyl-N^4-methyl-8-phenyl-7,8-dihydro-5H-pyrano[4,3-d]pyrimidine-2,4-diamine] it is 10 to 100 nM.
In the case of `COc1cc(Nc2nc3c(c(N4CC[C@@H](F)C4)n2)COC3c2ccc(F)cc2)ccc1-n1cnc(Cl)c1` (single isomer, unassigned) [Example 83A], the concentration for half-maximal inhibition (IC50) lay within 1.5 to 9.9 nM.
On the same count and under the same terms, the figure for `COc1cc(Nc2nc3c(c(N4CCC(O)(C(F)(F)F)C4)n2)CCC3c2ccc(F)cc2)ccc1-n1cnc(Cl)c1` (single isomer, unassigned) [Example 28, 1-(2-(4-(4-chloro-1H-imidazol-1-yl)-3-methoxyphenylamino)-7-(4-fluorophenyl)-6,7-dihydro-5H-cyclopenta[d]pyrimidin-4-yl)-3-(trifluoromethyl)pyrrolidin-3-ol] is 10 to 100 nM.
For the molecule `[2H]C([2H])([2H])Nc1nc(Nc2ccc(-n3cnc(Cl)c3)c(OC)c2)nc2c1CCC2c1ccccc1` (single isomer, unassigned) [Example 176A, N^2-(4-(4-Chloro-1H-imidazol-1-yl)-3-methoxyphenyl)-N^4-trideuteromethyl-7-phenyl-6,7-dihydro-5H-cyclopenta[d]pyrimidine-2,4-diamine], the half-maximal inhibitory concentration (IC50) lay within 1.5 to 9.9 nM.
The same measure, in the same setting: the figure for `CNc1nc(Nc2ccc(-n3cnc(C)n3)c(OC)c2)nc2c1COCC2c1ccc(F)cc1` (centres unmarked) [Example 54B, 8-(4-fluorophenyl)-N2-(3-methoxy-4-(3-methyl-1H-1,2,4-triazol-1-yl)phenyl)-N4-methyl-7,8-dihydro-5H-pyrano[4,3-d]pyrimidine-2,4-diamine] is 1.5 to 9.9 nM; for `CCNc1nc(Nc2ccc(-n3cnc(Cl)c3)c(OC)c2)nc2c1COCC2c1cc(F)cc(F)c1` (centres unmarked) [Example 112A, N2-(4-(4-chloro-1H-imidazol-1-yl)-3-methoxyphenyl)-8-(3,5-difluorophenyl)-N4-ethyl-7,8-dihydro-5H-pyrano[4,3-d]pyrimidine-2,4-diamine] it is 1.5 to 9.9 nM.

Staying with this test, now noted: H4 APP751 SWE clone 8.20 cells, 19 h incubation; read-out: Activity Rating (Aβ42 cellular IC50), numeric value.
As for `CCNc1nc(Nc2ccc(-n3cnc(C)n3)c(F)c2)nc2c1CN(CC(F)F)CC2c1ccccc1` (centres unmarked) [Example 195A, 6-(2,2-difluoroethyl)-N4-ethyl-N2-(3-fluoro-4-(3-methyl-1H-1,2,4-triazol-1-yl)phenyl)-8-phenyl-5,6,7,8-tetrahydropyrido[4,3-d]pyrimidine-2,4-diamine], the half-maximal inhibitory concentration (IC50) was determined as 26 nM.

(Values after US8637525B2, “Compounds for the reduction of beta-amyloid production” (Bristol-Myers Squibb Company, priority 2009, dated 2014).)
